Test: Solubilisation of active ingredient in aqueous surfactant solution (stirring overnight at room temperature)
Assay type: physicochemical
Settings: Aqua bidest. ad 1,00 ml
Experimental: Das einfache grundlegende System besteht aus einem erfindungsgemäß geeigneten Tensid, einem lipophilen Wirkstoff und Wasser. Durch Lösen der Bestandteile mittels Rühren entsteht ein vorzugsweise klares, kolloidales System, in welchem die lipophile Substanz in Mizellen verkapselt gelöst ist.
Wirkstoff und Tensid wurden eingewogen und um 1ml Aqua bidest. ergänzt. Dieser Ansatz wurde über Nacht durch Rühren bei Raumtemperatur (21°C) gelöst. […] Die Messungen wurden mittels Photonenkorellationsspektrometrie durchgeführt.
Die Herstellung erfolgte analog wie bereits unter Beispiel 1 beschrieben.

Which “Budesonid in Lösung” value (Solutol® HS15 10,00 mg) does the source give for `CCCC1O[C@@H]2C[C@H]3[C@@H]4CCC5=CC(=O)C=C[C@]5(C)[C@H]4[C@@H](O)C[C@]3(C)[C@]2(C(=O)CO)O1` (stereo partly shown) [Budesonid] here?
The value was 0,09 mg.

What about the “Budesonid in Lösung” value (Solutol® HS15 50,00 mg) of the same compound?
Its value is 0,41 mg.

And the “Budesonid in Lösung” value (Solutol® HS15 100,00 mg)?
Its value is 0,77 mg.

And the “Budesonid in Lösung” value (Solutol® HS15 200,00 mg)?
Its value is 1,32 mg.

From patent publication EP2736485B1, “AQUEOUS SOLUTIONS OF […], IN […] SOLUTIONS” (Universität Regensburg, priority 2011, dated 2013)
